# Tested on: 282377-053-R-J1-PDC complex spheroids, viability
# Experiment: Anticancer human tumor 282377-053-R-J1-PDC patient-derived colon adenocarcinoma cell line growth inhibition [GQUAD]
# Conditions: for IC50: curve of first compound; for viability, T/C: stronger effect = lower value
# Outline: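 Tumor cells were grown as complex spheroids with HUVEC endothelial cells and mesenchymal stem cells as stroma. G-quadruplex stabilizers were combined with targeted agents over half-log dilutions from near the clinical Cmax, or from 10 microM.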
# [1] = second compound 0.0316 µM, first compound 0.0316 µM
# [2] = second compound 0.0316 µM, first compound 0.1 µM
# [3] = second compound 0.0316 µM, first compound 0.316 µM
# [4] = second compound 0.0316 µM, first compound 1 µM
# [5] = second compound 0.0316 µM, first compound 3.16 µM
# [6] = second compound 0.0316 µM, first compound 10 µM
# [7] = second compound 0.1 µM, first compound 0.0316 µM
# [8] = second compound 0.1 µM, first compound 0.1 µM
# [9] = second compound 0.1 µM, first compound 0.316 µM
# [10] = second compound 0.1 µM, first compound 1 µM
# [11] = second compound 0.1 µM, first compound 3.16 µM
# [12] = second compound 0.1 µM, first compound 10 µM
# [13] = second compound 0.316 µM, first compound 0.0316 µM
# [14] = second compound 0.316 µM, first compound 0.1 µM
# [15] = second compound 0.316 µM, first compound 0.316 µM
# [16] = second compound 0.316 µM, first compound 1 µM
# [17] = second compound 0.316 µM, first compound 3.16 µM
# [18] = second compound 0.316 µM, first compound 10 µM
# [19] = second compound 1 µM, first compound 0.0316 µM
# [20] = second compound 1 µM, first compound 0.1 µM
# [21] = second compound 1 µM, first compound 0.316 µM
# [22] = second compound 1 µM, first compound 1 µM
# [23] = second compound 1 µM, first compound 3.16 µM
# [24] = second compound 1 µM, first compound 10 µM
# [25] = second compound 3.16 µM, first compound 0.0316 µM
# [26] = second compound 3.16 µM, first compound 0.1 µM
# [27] = second compound 3.16 µM, first compound 0.316 µM
# [28] = second compound 3.16 µM, first compound 1 µM
# [29] = second compound 3.16 µM, first compound 3.16 µM
# [30] = second compound 3.16 µM, first compound 10 µM
# [31] = second compound 10 µM, first compound 0.0316 µM
# [32] = second compound 10 µM, first compound 0.1 µM
# [33] = second compound 10 µM, first compound 0.316 µM
# [34] = second compound 10 µM, first compound 1 µM
# [35] = second compound 10 µM, first compound 3.16 µM
# [36] = second compound 10 µM, first compound 10 µM
# 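Also: spheroids exposed to compounds for 7 days before readout.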
# 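For viability, T/C in this document: percent of vehicle DMSO control viability with 100% = untreated-like growth.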
smiles,measurement,setting,value
C=CCn1c(=O)c2cnc(Nc3ccc(N4CCN(C)CC4)cc3)nc2n1-c1cccc(C(C)(C)O)n1 + CN(C)c1ccc(Nc2c3ccc(NC(=O)CCN4CCCC4)cc3nc3cc(NC(=O)CCN4CCCC4)ccc23)cc1,IC50,second compound 0.0316 µM,1.91 µM
same,IC50,second compound 0.1 µM,1.98 µM
same,IC50,second compound 0.316 µM,2.04 µM
same,IC50,second compound 1 µM,1.86 µM
same,IC50,second compound 3.16 µM,1.8 µM
same,IC50,second compound 10 µM,2.32 µM
same,"viability, T/C",[1],94.2%
same,"viability, T/C",[2],99.9%
same,"viability, T/C",[3],83.3%
same,"viability, T/C",[4],75.2%
same,"viability, T/C",[5],30.8%
same,"viability, T/C",[6],16.7%
same,"viability, T/C",[7],108%
same,"viability, T/C",[8],95.3%
same,"viability, T/C",[9],82.7%
same,"viability, T/C",[10],73.3%
same,"viability, T/C",[11],33.9%
same,"viability, T/C",[12],15.1%
same,"viability, T/C",[13],105%
same,"viability, T/C",[14],84.8%
same,"viability, T/C",[15],74.5%
same,"viability, T/C",[16],90.1%
same,"viability, T/C",[17],26.5%
same,"viability, T/C",[18],16.1%
same,"viability, T/C",[19],85.2%
same,"viability, T/C",[20],90.9%
same,"viability, T/C",[21],94.2%
same,"viability, T/C",[22],76.4%
same,"viability, T/C",[23],27.5%
same,"viability, T/C",[24],16.7%
same,"viability, T/C",[25],92.8%
same,"viability, T/C",[26],82.5%
same,"viability, T/C",[27],92.8%
same,"viability, T/C",[28],68.5%
same,"viability, T/C",[29],31.8%
same,"viability, T/C",[30],16.1%
same,"viability, T/C",[31],86.7%
same,"viability, T/C",[32],78.3%
same,"viability, T/C",[33],104%
same,"viability, T/C",[34],78.4%
same,"viability, T/C",[35],39.1%
same,"viability, T/C",[36],15.3%
Cc1cccc(N(C)C(=O)C2C(O)CCN2c2nc(C)cc(C(F)(F)F)c2C#N)c1 (stereo unspecified) + Cc1cnc(CNC(=O)c2c(=O)c3ccc(N4CCCN(C)CC4)nc3n3c2sc2ccccc23)cn1,IC50,second compound 0.0316 µM,> 10 µM
same,IC50,second compound 0.1 µM,> 10 µM
same,IC50,second compound 0.316 µM,> 10 µM
same,IC50,second compound 1 µM,> 10 µM
same,IC50,second compound 3.16 µM,> 10 µM
same,IC50,second compound 10 µM,1.25 µM
same,"viability, T/C",[1],114%
same,"viability, T/C",[2],105%
same,"viability, T/C",[3],108%
same,"viability, T/C",[4],80.3%
same,"viability, T/C",[5],95.1%
same,"viability, T/C",[6],93.1%
same,"viability, T/C",[7],96.1%
same,"viability, T/C",[8],99.3%
same,"viability, T/C",[9],95.5%
same,"viability, T/C",[10],88%
same,"viability, T/C",[11],88.8%
same,"viability, T/C",[12],93.6%
same,"viability, T/C",[13],95%
same,"viability, T/C",[14],85.6%
same,"viability, T/C",[15],98.8%
same,"viability, T/C",[16],77%
same,"viability, T/C",[17],93.4%
same,"viability, T/C",[18],79.7%
same,"viability, T/C",[19],66.3%
same,"viability, T/C",[20],60.6%
same,"viability, T/C",[21],64.1%
same,"viability, T/C",[22],60.3%
same,"viability, T/C",[23],65.9%
same,"viability, T/C",[24],67.1%
same,"viability, T/C",[25],54.6%
same,"viability, T/C",[26],51%
same,"viability, T/C",[27],56.2%
same,"viability, T/C",[28],58.8%
same,"viability, T/C",[29],56.6%
same,"viability, T/C",[30],58.5%
same,"viability, T/C",[31],50.6%
same,"viability, T/C",[32],53.6%
same,"viability, T/C",[33],50.6%
same,"viability, T/C",[34],52.2%
same,"viability, T/C",[35],46.4%
same,"viability, T/C",[36],35.5%
O=c1[nH]cc(F)c(=O)[nH]1 + CN(C)c1ccc(Nc2c3ccc(NC(=O)CCN4CCCC4)cc3nc3cc(NC(=O)CCN4CCCC4)ccc23)cc1,IC50,second compound 0.0316 µM,> 10 µM
same,IC50,second compound 0.1 µM,> 10 µM
same,IC50,second compound 0.316 µM,> 10 µM
same,IC50,second compound 1 µM,> 10 µM
same,IC50,second compound 3.16 µM,> 10 µM
same,IC50,second compound 10 µM,> 10 µM
same,"viability, T/C",[1],95.5%
same,"viability, T/C",[2],87.1%
same,"viability, T/C",[3],110%
same,"viability, T/C",[4],81%
same,"viability, T/C",[5],73.4%
same,"viability, T/C",[6],74.1%
same,"viability, T/C",[7],101%
same,"viability, T/C",[8],93.1%
same,"viability, T/C",[9],104%
same,"viability, T/C",[10],88.8%
same,"viability, T/C",[11],74.5%
same,"viability, T/C",[12],73.2%
same,"viability, T/C",[13],106%
same,"viability, T/C",[14],94.3%
same,"viability, T/C",[15],106%
same,"viability, T/C",[16],96%
same,"viability, T/C",[17],67.8%
same,"viability, T/C",[18],73.8%
same,"viability, T/C",[19],108%
same,"viability, T/C",[20],94.4%
same,"viability, T/C",[21],106%
same,"viability, T/C",[22],89.9%
same,"viability, T/C",[23],77.8%
same,"viability, T/C",[24],69%
same,"viability, T/C",[25],83.1%
same,"viability, T/C",[26],75.7%
same,"viability, T/C",[27],89.2%
same,"viability, T/C",[28],79.1%
same,"viability, T/C",[29],68.2%
same,"viability, T/C",[30],64.5%
same,"viability, T/C",[31],92.8%
same,"viability, T/C",[32],81.3%
same,"viability, T/C",[33],88.5%
same,"viability, T/C",[34],81.7%
same,"viability, T/C",[35],70.1%
same,"viability, T/C",[36],57.9%
